# Entries after “also recorded” stand apart in the source; their conditions may differ.
# How the values were obtained:
# CD4 T cell proliferation = CD4 T cell proliferation by CFSE dilution, anti-CD3 stimulation; type: cell-based, human; conditions: human CD3+ T cells (n = 4 donors), CFSE dilution gated on CD4, 0.2 μg·ml^−1 plate-bound anti-CD3 (OKT3), no co-stimulation, 4 days, 0.2% DMSO
# Method: Figure 2. […] CD4 T cell proliferation was assessed upon stimulation with anti-CD3ϵ by CFSE dilution as a measure for cellular proliferation, analyzed on day 4. For rapamycin and AX-024–treated cells, the dashed line indicates control proliferation at a DMSO concentration of 0.2%. For CD3ϵ-derived peptides 11Rwt, 11R085, and 11Rscr, the dashed line indicates control proliferation at 0.3% DMSO, 0.3% PBS. 11Rwt has sequence R11-G3-[…], 11R085 R11-G3-Q(dK)[…], and 11Rscr R11-G3-[…](dK)PQP. A polyarginine tag is used to enable cell penetration of the peptides ([10]). The gray boxes indicate concentrations of compound leading to decreased cell viability. These values should be disregarded. Binding of peptides 11Rwt and 11R085, but not 11Rscr, to Nck-SH3.1 was confirmed by NMR spectroscopy (Fig. S1). Asterisks, p < 0.05 as determined by a repeated-measure one-way analysis of variance with Holm–Sidak's multiple-comparison test to DMSO/PBS. Dotted lines, mean DMSO/PBS values. Error bars, S.D.
# Fresh human peripheral blood mononuclear cells (PBMCs) from healthy donors (n = 4) were prepared from buffy coats. CD3^+ T cells were isolated by immunomagnetic separation (negative selection, StemCell, lot 18A87710), carboxyfluorescein succinimidyl ester (CFSE)-labeled, resuspended in StemCell Immunocult^TM-XF T cell expansion medium, and treated with compounds or vehicle for 2 h at room temperature. The isolated CD3^+ T cells were stained for CD3, CD4, and CD8, and their purity was assessed by flow cytometry. Cells were then cultured in a 96-well flat-bottomed plate (10^5 cells/well), precoated for 1 h at 37 °C with 0.2 μg·ml^−1 plate-bound anti-CD3 (clone OKT3, BioLegend). […] Cells were cultured in the presence of AX-024, rapamycin, peptide 11Rwt, peptide 11R85, peptide 11Rscr (derived from Ref. [11]; see below for sequences), or vehicle for 4 days. At the end of culture, cells were stained for viability, and CFSE dilution was assessed by flow cytometry (with gating on CD4 versus CD8).
# dimeric Nck1-SH3.1 = assay: Ligand-observed NMR with dimeric Nck1-SH3.1; type: binding, human; conditions: 50 μM ligand, 10 μM dimeric Nck1-SH3.1 (residues 1–61), pH 6.5, 150 mM NaCl, 27 °C
# Method: NMR spectra were recorded on a Bruker 600-MHz Avance NEO spectrometer equipped with a cryogenic QCI probe head at 27 °C in 25 mM […], 150 mM NaCl. The Topspin 4.0 software (Bruker, Fällanden) was used for spectrometer operation and data processing. For ^1H ligand-observed measurements, a relaxation filtered pulse sequence utilizing a spinlock of 50 ms was applied. 1D spectra were acquired with 128 scans, a sweep width of 26 ppm, and an acquisition time of 2 s. 2D ^1H-^15N HSQC spectra with natural ^15N isotope abundance were recorded over 72 h with a spectral width of 16 ppm and 35 ppm in the proton and nitrogen dimensions, respectively, with 256 increments (complex) and 1000 scans per increment. A relaxation delay of 1 s was used between scans. For the DOSY measurements (reviewed in Ref. [51]), the Bruker pulse sequence ledbpgp2s with a diffusion delay of 50 ms and a gradient length of 600 μs was used. The gradient strength was varied from 5 to 95% to record 16 increments of 512 scans with a sweep width of 18 ppm and a relaxation delay of 1 s.
# Samples for ligand-observed measurements were prepared in 25 mM sodium phosphate buffer, pH 6.5, 150 mM NaCl. One sample contained 50 μM AX-024, and the other contained 50 μM CD3ϵ peptide.
# [1] = system: CD3ϵ peptide/Nck1-SH3.1 interaction; assay: SPR competition with CD3ϵ peptide on immobilized Nck1-SH3.1; type: binding, human; conditions: 100 μM AX-024 co-injected with 100 μM CD3ϵ peptide
# Method: SPR experiments were conducted on a T200 Biacore instrument (GE Healthcare, Uppsala, Sweden) at 20 °C in 10 mM HEPES/NaOH, pH 7.8, 150 mM NaCl, 1 mM TCEP. His10-Avi-TEV-Nck1-SH3.1 (residues 1–61, MM 11,847 Da) was biotinylated and immobilized via streptavidin on the surface of either a CAP or a SA sensor, prepared according to the manufacturer's instructions (GE Healthcare). Streptavidin is immobilized on the CAP sensor by way of double-strand DNA formation. A ssDNA is covalently coupled to the sensor surface, and a complementary DNA strand, covalently linked to streptavidin, is hybridized. To regenerate the surface, the DNA duplex is dissociated by washing with high-ionic strength solution. Thus, after each titration, fresh biotinylated Nck1-SH3.1 was immobilized on the sensor surface. For CD3ϵ peptide-binding experiments, the surface density of the Nck1-SH3.1 domain was ∼250 response units (RU), whereas for binding experiments with AX-024 and APVA variant peptides, the surface density of Nck1-SH3.1 was increased to 1260 RU. […]
# Binding of the CD3ϵ-derived peptide […]-NH2 (CD3ϵ residues 173–188; MM 1864.1 Da) or of the APVA variant […]-NH2 (MM 1811.1 Da) to the immobilized Nck1-SH3.1 domain was monitored in a concentration-dependent manner between 0.4 and 100 μM CD3ϵ peptide (200 μM in the case of the APVA variant peptide). […]
structure (smiles),measurement,setting,value
"COc1ccc2c(c1)C(c1ccc(F)cc1)=C(CN1CCCC1)CO2.Cl [AX-024, 1-((4-(4-fluorophenyl)-6-methoxy-2H-chromen-3-yl)methyl)pyrrolidine hydrochloride]",inhibition of T cell proliferation,CD4 T cell proliferation,inhibited T cell proliferation
same,"ligand-observed NMR, spectral change / line broadening",dimeric Nck1-SH3.1,do not show any spectral changes; also recorded: no interaction was observed
same,effect on binding of CD3ϵ peptide to Nck1-SH3.1 (competition),[1],unaffected by AX-024; also recorded: failed to show an effect on binding of CD3ϵ to immobilized Nck1-SH3.1

# Reference: publication PMC7278359, “Small molecule AX-024 reduces T cell proliferation independently of CD3ϵ/Nck1 interaction, which is governed by a domain swap in the Nck1-SH3.1 domain” (The Journal of Biological Chemistry, 2020)
